Results published in US6737383B1, “Herbicidal oxadiazolidines” (priority 1999, dated 2004).

How the values were obtained:
velvetleaf = assay: Test B pre/postemergence velvetleaf; assay type: in vivo, Abutilon theophrasti
Outline: (§1)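 Response is a visual 0-to-10 score relative to untreated plants, where 0 means no effect and 10 means complete control, taken twelve to sixteen days after application. Treatments went onto soil at planting and onto foliage of 1- to 4-leaf plants, using a surfactant-containing non-phytotoxic solvent.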

surinam grass = assay: Test B pre/postemergence surinam grass; assay type: in vivo, Brachiaria decumbens
Outline: as §1

wheat = assay: Test B pre/postemergence wheat; assay type: in vivo, Triticum aestivum
Outline: as §1

soybean = assay: Test B pre/postemergence soybean; assay type: in vivo, Glycine max
Outline: as §1

rape = assay: Test B pre/postemergence rape; assay type: in vivo, Brassica napus
Outline: as §1

corn = assay: Test B pre/postemergence corn; assay type: in vivo, Zea mays
Outline: as §1

bamyardgrass = assay: Test B flood test barnyardgrass; assay type: in vivo, Echinochloa crus-galli
Outline: (§2)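 Flood test on plants grown to the 2-leaf stage; treated plants kept in greenhouse twelve to sixteen days, then visually rated against controls on a 0 (no effect) to 10 (complete control) scale.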

crabgrass = assay: Test B pre/postemergence crabgrass; assay type: in vivo, Digitaria sanguinalis
Outline: as §1

sugar beet = assay: Test B pre/postemergence sugar beet; assay type: in vivo, Beta vulgaris
Outline: as §1

cocklebur = assay: Test B pre/postemergence cocklebur; assay type: in vivo, Xanthium strumarium
Outline: as §1

blackgrass = assay: Test B pre/postemergence blackgrass; assay type: in vivo, Alopecurus myosuroides
Outline: as §1

purple nutsedge = assay: Test B pre/postemergence purple nutsedge; assay type: in vivo, Cyperus rotundus
Outline: as §1

duck salad = assay: Test B flood test duck salad; assay type: in vivo, Heteranthera limosa
Outline: as §2

rice = assay: Test B flood test rice; assay type: in vivo, Oryza sativa
Outline: as §2

bedstraw = assay: Test B pre/postemergence bedstraw; assay type: in vivo, Galium aparine
Outline: as §1

wild oat = assay: Test B pre/postemergence wild oat; assay type: in vivo, Avena fatua
Outline: as §1

smallflower flatsedge = assay: Test B flood test smallflower flatsedge; assay type: in vivo, Cyperus difformis
Outline: as §2

[1] = Postemergence, Rate 62 g/ha, scale 0 to 10, 0 is no effect, 10 is complete control
[2] = Postemergence, Rate 250 g/ha, scale 0 to 10, 0 no effect, 10 complete control
[3] = Postemergence, Rate 1000 g/ha, scale 0 to 10 (0 no effect, 10 complete control)
[4] = Preemergence, Rate 31 g/ha, visual rating, scale 0 to 10 (0 no effect, 10 complete control)
[5] = Preemergence, Rate 62 g/ha, scale 0 to 10, 0 is no effect, 10 is complete control
[6] = Preemergence, Rate 125 g/ha, scale 0 to 10 (0 no effect, 10 complete control)
[7] = Preemergence, Rate 250 g/ha, scale of 0 to 10 where 0 is no effect and 10 is complete control
[8] = Preemergence, Rate 500 g/ha, scale 0 (no effect) to 10 (complete control)
[9] = Rate 125 g/ha, Postemergence, scale 0 to 10, 0 no effect, 10 complete control
[10] = Rate 1000 g/ha, Preemergence, scale 0 to 10 (0 no effect, 10 complete control)
[11] = Rate 31 g/ha, Postemergence, scale 0 to 10
[12] = Rate 500 g/ha, Postemergence, 0 to 10 scale (0 no effect, 10 complete control)
[13] = Rate 31 g/ha, Postemergence section (flood test species), scale 0 to 10
[14] = Rate 125 g/ha, Postemergence section (flood test species), scale 0 to 10, 0 no effect, 10 complete control
[15] = Rate 500 g/ha, Postemergence section of Table B, 0 to 10 scale (0 no effect, 10 complete control)
[16] = flood test, listed under Postemergence, Rate 250 g/ha, scale 0 to 10, 0 no effect, 10 complete control

Cc1ccccc1-n1c(=O)on(C(=O)N(c2ccc(F)cc2)C(C)C)c1=O [Compound 4]
7: Velvetleaf plant response rating (velvetleaf; [3]) | Plant response rating, B. signalgrass (surinam grass; [6]) | Plant response rating, Sugarbeets (sugar beet; [6]) | Bedstraw plant response rating (bedstraw; [2]) | Bedstraw plant response rating (bedstraw; [12]) | Wild oats plant response rating (wild oat; [8])
4: B. signalgrass plant response rating (surinam grass; [3]) | Soybean plant response rating (soybean; [2]) | Soybean plant response rating (soybean; [9]) | Barnyardgrass plant response rating (bamyardgrass; [3]) | Barnyardgrass plant response rating (bamyardgrass; [15]) | Sugarbeets plant response rating (sugar beet; [3]) | Plant response rating, Sugarbeets (sugar beet; [10]) | Blackgrass plant response rating (blackgrass; [9]) | Plant response rating, Bedstraw (bedstraw; [7]) | Bedstraw plant response rating (bedstraw; [8]) | Plant response rating, Wild oats (wild oat; [7]) | S. Flatsedge plant response rating (smallflower flatsedge; [3])
1: Plant response rating, Soybean (soybean; [10]) | Plant response rating, Bedstraw (bedstraw; [6])
8: Plant response rating, B. signalgrass (surinam grass; [7]) | Crabgrass plant response rating (crabgrass; [2]) | Crabgrass plant response rating (crabgrass; [3]) | Crabgrass plant response rating (crabgrass; [12]) | Plant response rating, Sugarbeets (sugar beet; [7]) | Cocklebur plant response rating (cocklebur; [3]) | Plant response rating, Blackgrass (blackgrass; [7]) | Blackgrass plant response rating (blackgrass; [8]) | Bedstraw plant response rating (bedstraw; [3]) | Plant response rating, Wild oats (wild oat; [10])
3: Velvetleaf plant response rating (velvetleaf; [2]) | Velvetleaf plant response rating (velvetleaf; [9]) | Rape plant response rating (rape; [3]) | Plant response rating, Rape (rape; [10]) | Barnyardgrass plant response rating (bamyardgrass; [16]) | Crabgrass plant response rating (crabgrass; [4]) | Plant response rating, Crabgrass (crabgrass; [5]) | Sugarbeets plant response rating (sugar beet; [2]) | Sugarbeets plant response rating (sugar beet; [8]) | Ducksalad plant response rating (duck salad; [3])
10: Plant response rating, B. signalgrass (surinam grass; [10]) | Plant response rating, Crabgrass (crabgrass; [6]) | Plant response rating, Crabgrass (crabgrass; [7]) | Crabgrass plant response rating (crabgrass; [8]) | Plant response rating, Crabgrass (crabgrass; [10]) | Plant response rating, Blackgrass (blackgrass; [10])
2: B. signalgrass plant response rating (surinam grass; [12]) | Soybean plant response rating (soybean; [1]) | Rape plant response rating (rape; [12]) | Sugarbeets plant response rating (sugar beet; [9]) | Cocklebur plant response rating (cocklebur; [9]) | Ducksalad plant response rating (duck salad; [15]) | Ducksalad plant response rating (duck salad; [16]) | S. Flatsedge plant response rating (smallflower flatsedge; [16])
6: Plant response rating, Rape (rape; [7]) | Cocklebur plant response rating (cocklebur; [2]) | Cocklebur plant response rating (cocklebur; [12]) | Blackgrass plant response rating (blackgrass; [3]) | Plant response rating, Blackgrass (blackgrass; [6]) | Blackgrass plant response rating (blackgrass; [12]) | Plant response rating, Bedstraw (bedstraw; [10])
5: Soybean plant response rating (soybean; [3]) | Crabgrass plant response rating (crabgrass; [9]) | Blackgrass plant response rating (blackgrass; [2]) | Bedstraw plant response rating (bedstraw; [9])
9: B. signalgrass plant response rating (surinam grass; [8])
0: Velvetleaf plant response rating (velvetleaf; [1]) | Velvetleaf plant response rating (velvetleaf; [4]) | Plant response rating, Velvetleaf (velvetleaf; [5]) | Plant response rating, Velvetleaf (velvetleaf; [6]) | Plant response rating, Velvetleaf (velvetleaf; [7]) | Velvetleaf plant response rating (velvetleaf; [8]) | Plant response rating, Velvetleaf (velvetleaf; [10]) | B. signalgrass plant response rating (surinam grass; [1]) | B. signalgrass plant response rating (surinam grass; [2]) | B. signalgrass plant response rating (surinam grass; [4]) | Plant response rating, B. signalgrass (surinam grass; [5]) | B. signalgrass plant response rating (surinam grass; [11]) | B. signalgrass plant response rating (surinam grass; [9]) | Wheat plant response rating (wheat; [1]) | Wheat plant response rating (wheat; [2]) | Wheat plant response rating (wheat; [3]) | Wheat plant response rating (wheat; [4]) | Plant response rating, Wheat (wheat; [5]) | Plant response rating, Wheat (wheat; [6]) | Plant response rating, Wheat (wheat; [7]) | Wheat plant response rating (wheat; [8]) | Wheat plant response rating (wheat; [9]) | Plant response rating, Wheat (wheat; [10]) | Soybean plant response rating (soybean; [4]) | Plant response rating, Soybean (soybean; [5]) | Plant response rating, Soybean (soybean; [6]) | Plant response rating, Soybean (soybean; [7]) | Soybean plant response rating (soybean; [8]) | Rape plant response rating (rape; [1]) | Rape plant response rating (rape; [2]) | Rape plant response rating (rape; [4]) | Plant response rating, Rape (rape; [5]) | Plant response rating, Rape (rape; [6]) | Rape plant response rating (rape; [8]) | Rape plant response rating (rape; [11]) | Rape plant response rating (rape; [9]) | Corn plant response rating (corn; [1]) | Corn plant response rating (corn; [2]) | Corn plant response rating (corn; [3]) | Corn plant response rating (corn; [4]) | Plant response rating, Corn (corn; [5]) | Plant response rating, Corn (corn; [6]) | Plant response rating, Corn (corn; [7]) | Corn plant response rating (corn; [8]) | Corn plant response rating (corn; [11]) | Corn plant response rating (corn; [9]) | Corn plant response rating (corn; [12]) | Plant response rating, Corn (corn; [10]) | Barnyardgrass plant response rating (bamyardgrass; [1]) | Barnyardgrass plant response rating (bamyardgrass; [13]) | Barnyardgrass plant response rating (bamyardgrass; [14]) | Crabgrass plant response rating (crabgrass; [1]) | Crabgrass plant response rating (crabgrass; [11]) | Sugarbeets plant response rating (sugar beet; [1]) | Sugarbeets plant response rating (sugar beet; [4]) | Plant response rating, Sugarbeets (sugar beet; [5]) | Cocklebur plant response rating (cocklebur; [1]) | Cocklebur plant response rating (cocklebur; [4]) | Plant response rating, Cocklebur (cocklebur; [5]) | Plant response rating, Cocklebur (cocklebur; [6]) | Plant response rating, Cocklebur (cocklebur; [7]) | Cocklebur plant response rating (cocklebur; [8]) | Cocklebur plant response rating (cocklebur; [11]) | Plant response rating, Cocklebur (cocklebur; [10]) | Blackgrass plant response rating (blackgrass; [1]) | Blackgrass plant response rating (blackgrass; [4]) | Plant response rating, Blackgrass (blackgrass; [5]) | Blackgrass plant response rating (blackgrass; [11]) | Nutsedge plant response rating (purple nutsedge; [1]) | Nutsedge plant response rating (purple nutsedge; [2]) | Nutsedge plant response rating (purple nutsedge; [3]) | Nutsedge plant response rating (purple nutsedge; [4]) | Plant response rating, Nutsedge (purple nutsedge; [5]) | Plant response rating, Nutsedge (purple nutsedge; [6]) | Plant response rating, Nutsedge (purple nutsedge; [7]) | Nutsedge plant response rating (purple nutsedge; [8]) | Nutsedge plant response rating (purple nutsedge; [11]) | Nutsedge plant response rating (purple nutsedge; [9]) | Nutsedge plant response rating (purple nutsedge; [12]) | Plant response rating, Nutsedge (purple nutsedge; [10]) | Ducksalad plant response rating (duck salad; [1]) | Ducksalad plant response rating (duck salad; [13]) | Ducksalad plant response rating (duck salad; [14]) | Rice plant response rating (rice; [1]) | Rice plant response rating (rice; [3]) | Rice plant response rating (rice; [13]) | Rice plant response rating (rice; [14]) | Rice plant response rating (rice; [15]) | Rice plant response rating (rice; [16]) | Bedstraw plant response rating (bedstraw; [1]) | Bedstraw plant response rating (bedstraw; [4]) | Plant response rating, Bedstraw (bedstraw; [5]) | Bedstraw plant response rating (bedstraw; [11]) | Wild oats plant response rating (wild oat; [1]) | Wild oats plant response rating (wild oat; [2]) | Wild oats plant response rating (wild oat; [3]) | Wild oats plant response rating (wild oat; [4]) | Plant response rating, Wild oats (wild oat; [6]) | Wild oats plant response rating (wild oat; [9]) | S. Flatsedge plant response rating (smallflower flatsedge; [1]) | S. Flatsedge plant response rating (smallflower flatsedge; [14])
